Test results taken from ChEMBL document CHEMBL1152840, “Antileukotrienic phenethylamido derivatives of arylalkanoic acids in the treatment of ulcerative colitis” (Eur J Med Chem, 2009).

Assays:
[1] = system: Mus musculus; experiment: Antiinflammatory activity against dextrane disodium sulfate-induced ulcerative colitis in BALB/c mouse assessed as diseased animal with rectal prolapse at 250 mg/kg administered 1 hr before dextrane disodium sulfate challenge; format: functional
[2] = system: Mus musculus; experiment: Antiinflammatory activity against dextrane disodium sulfate-induced ulcerative colitis in BALB/c mouse assessed as diseased animal with small intestine bleeding at 250 mg/kg administered 1 hr before dextrane disodium sulfate challenge; format: functional
[3] = system: Mus musculus; experiment: Antiinflammatory activity in mouse assessed as inhibition of arachidonic acid-induced ear lobe edema at 200 mg/kg, po administered 1 hr before arachidonic acid challenge measured after 1 hr relative to untreated control; format: functional
[4] = system: Mus musculus; experiment: Antiinflammatory activity against dextrane disodium sulfate-induced ulcerative colitis in BALB/c mouse assessed as diseased animal with stool consistency at 250 mg/kg administered 1 hr before dextrane disodium sulfate challenge; format: functional
[5] = system: Mus musculus; experiment: Antiinflammatory activity against dextrane disodium sulfate-induced ulcerative colitis in BALB/c mouse assessed as length of colon at 250 mg/kg administered 1 hr before dextrane disodium sulfate challenge; format: functional
[6] = Antileukotrienic activity in rat PMNC assessed as inhibition of Ca2+ ionophore A23187-induced LTB4 production by RIA; format: functional
[7] = Lipophilicity, log K by HPLC method; format: physicochemical
[8] = system: Mus musculus; experiment: Antiinflammatory activity against dextrane disodium sulfate-induced ulcerative colitis in BALB/c mouse assessed as diseased animal with large intestine bleeding at 250 mg/kg administered 1 hr before dextrane disodium sulfate challenge; format: functional
[9] = system: Mus musculus; experiment: Antiinflammatory activity in mouse assessed as inhibition of arachidonic acid-induced ear lobe hyperemia at 200 mg/kg, po administered 1 hr before arachidonic acid challenge measured after 1 hr relative to untreated control; format: functional
[10] = system: Rattus norvegicus; experiment: Antiinflammatory activity in rat assessed as inhibition of carrageenan-induced edema at 100 mg/kg relative to untreated control; format: functional

| SMILES | IC50 [6] [µM] | log K [7] | Activity [1] [%] | Activity [2] [%] | inhibition in vivo at 200 mg/kg [3] [%] | Activity [4] [%] | Activity [5] [cm] | Activity [8] [%] | inhibition in vivo at 200 mg/kg [9] [%] | inhibition in vivo at 100 mg/kg [10] [%] |
| --- | --- | --- | --- | --- | --- | --- | --- | --- | --- | --- |
| CN(CCc1ccccc1)C(=O)Cc1ccc(OCCOc2ccc(C(=O)CCC(=O)O)cc2)cc1 | 20 | -0.089 | 0 | 0 | 16 | 0 | 9.2 | 20 | 3.6 | 38 |
| CN(CCc1ccccc1)C(=O)Cc1ccc(OCCOc2ccc(/C=C/C(=O)O)cc2)cc1 | 47 | 0.081 |  |  | 9.4 |  |  |  | 3.4 | 43 |
| COc1cc(/C=C/C(=O)O)ccc1OCCOc1ccc(CC(=O)N(C)CCc2ccccc2)cc1 |  | -0.061 | 0 | 0 | 23 | 40 | 7.2 | 40 | 0 | 10 |
| COc1cc(/C=C/C(=O)O)ccc1OCCCOc1ccc(CC(=O)N(C)CCc2ccccc2)cc1 |  | 0.166 |  |  | 16 |  |  |  | 7.1 | 20 |
| COc1cc(/C=C/C(=O)O)ccc1OCCCCOc1ccc(CC(=O)N(C)CCc2ccccc2)cc1 | 13 | 0.274 | 0 | 0 | 23 | 80 | 6.8 | 100 | 0 | 5.5 |
| CC(C(=O)O)c1cccc2ccc(OCCCCOc3ccc(CC(=O)NCCc4ccccc4)cc3)cc12 (stereo not given) | 5.6 | 0.755 | 0 | 0 | 26 | 20 | 7.5 | 80 | 3.3 | 22 |
| CC(C(=O)O)c1ccc(OCCCOc2ccc(CC(=O)N(C)CCc3ccccc3)cc2)c(Cl)c1 (stereo not given) | 9.1 | 0.432 |  |  |  |  |  |  |  |  |
| CC(C(=O)O)c1ccc(OCCCCOc2ccc(CC(=O)N(C)CCc3ccccc3)cc2)c(Cl)c1 (stereo not given) | 5.6 | 0.554 | 0 | 0 | 37 | 0 | 7.9 | 60 | 0 | 44 |
| CC(C(=O)O)c1cccc2ccc(OCCCOc3ccc(CC(=O)NCCc4ccccc4)cc3)cc12 (stereo not given) | 5.7 | 0.617 |  |  | 12 |  |  |  | 0 | 30 |
| COc1cc(CCC(=O)O)ccc1OCCCCOc1ccc(CC(=O)N(C)CCc2ccccc2)cc1 | 8.1 | 0.267 | 0 | 0 | 20 | 60 | 7 | 100 | 11 | 27 |
| CN(CCc1ccccc1)C(=O)Cc1ccc(OCCCCOc2ccc(/C=C/C(=O)O)cc2)cc1 | 8.7 | 0.462 |  |  | 22 |  |  |  | 6.7 | 20 |
| O=C(O)c1cc(/N=N/c2ccc(S(=O)(=O)Nc3ccccn3)cc2)ccc1O [SULFASALAZINE] |  |  | 0 | 0 |  | 53 | 9.1 | 80 |  |  |

The next lines start with results.

| IC50 [6] [µM] | log K [7] | SMILES | Activity [1] [%] | Activity [2] [%] | inhibition in vivo at 200 mg/kg [3] [%] | Activity [4] [%] | Activity [5] [cm] | Activity [8] [%] | inhibition in vivo at 200 mg/kg [9] [%] | inhibition in vivo at 100 mg/kg [10] [%] |
| --- | --- | --- | --- | --- | --- | --- | --- | --- | --- | --- |
| 7.5 | 0.636 | CC(CCc1ccc(OCCCOc2ccc(CC(=O)N(C)CCc3ccccc3)cc2)cc1)C(=O)O (stereo not given) | 0 | 0 | 16 | 100 | 7.2 | 60 | 3.7 |  |
| 10 | 0.752 | CC(CCc1ccc(OCCCCOc2ccc(CC(=O)N(C)CCc3ccccc3)cc2)cc1)C(=O)O (stereo not given) | 0 | 0 | 22 | 0 | 9.3 | 60 | 3.7 | 56 |
| 8.5 | 0.336 | CN(CCc1ccccc1)C(=O)Cc1ccc(OCCCOc2ccc(/C=C/C(=O)O)cc2)cc1 |  |  | 21 |  |  |  | 3.7 | 13 |
| 9.5 | 0.231 | CN(CCc1ccccc1)C(=O)Cc1ccc(OCCOc2ccc(CCCC(=O)O)cc2)cc1 | 0 | 0 | 12 | 80 | 7.1 | 100 | 3.6 | 36 |
| 12 | 0.451 | CN(CCc1ccccc1)C(=O)Cc1ccc(OCCCOc2ccc(CCCC(=O)O)cc2)cc1 |  |  | 13 |  |  |  | 3.4 | 30 |
| 16 | 0.6 | CN(CCc1ccccc1)C(=O)Cc1ccc(OCCCCOc2ccc(CCCC(=O)O)cc2)cc1 | 0 | 0 | 22 | 60 | 7.2 | 100 | 3.7 | 38 |
| 19 | 0.38 | CC(CCc1ccc(OCCOc2ccc(CC(=O)N(C)CCc3ccccc3)cc2)cc1)C(=O)O (stereo not given) |  |  | 14 |  |  |  | 3.7 | 14 |
| 11 | 0.324 | CN(CCc1ccccc1)C(=O)Cc1ccc(OCCCOc2ccc(CCC(=O)O)cc2)cc1 | 0 | 0 | 23 | 80 | 6.8 | 100 | 3.7 | 61 |
|  | 0.175 | COc1cc(CCC(=O)O)ccc1OCCCOc1ccc(CC(=O)N(C)CCc2ccccc2)cc1 |  |  | 12 |  |  |  | 7.4 | 26 |
| 100 | 0.344 | CC(C(=O)O)c1ccc(OCCCOc2ccc(CC(=O)N(C)CCc3ccccc3)cc2)cc1 (stereo not given) |  |  | 19 |  |  |  | 3.7 | 9.2 |
| 8.2 | 0.502 | CC(Cc1ccc(OCCCOc2ccc(CC(=O)N(C)CCc3ccccc3)cc2)cc1)C(=O)O (stereo not given) |  |  |  |  |  |  |  |  |
| 10 | 0.604 | CC(Cc1ccc(OCCCCOc2ccc(CC(=O)N(C)CCc3ccccc3)cc2)cc1)C(=O)O (stereo not given) |  |  | 10 |  |  |  | 7.4 | 37 |
| 10 | 0.451 | CN(CCc1ccccc1)C(=O)Cc1ccc(OCCCCOc2ccc(CCC(=O)O)cc2)cc1 |  |  | 13 |  |  |  | 3.4 | 30 |
| 31 | 0.458 | CC(C(=O)O)c1ccc(OCCCCOc2ccc(CC(=O)N(C)CCc3ccccc3)cc2)cc1 (stereo not given) | 0 | 20 | 19 | 100 | 7.2 | 100 | 0 | 63 |
